Reference: patent publication US11434242B2, “Dopamine-b-hydroxylase inhibitors” (BIAL-PORTELA & Cª, S.A., priority 2017, dated 2022)

Biological target: T1, Dopamine beta hydroxylase (Homo sapiens, UniProt P09172)
T1 construct: 125 μl of plasma; tissue Instituto Português do Sangue Transplantação; host or cells: human plasma from healthy donors
T1 sequence (P09172 40-617 limits assumed): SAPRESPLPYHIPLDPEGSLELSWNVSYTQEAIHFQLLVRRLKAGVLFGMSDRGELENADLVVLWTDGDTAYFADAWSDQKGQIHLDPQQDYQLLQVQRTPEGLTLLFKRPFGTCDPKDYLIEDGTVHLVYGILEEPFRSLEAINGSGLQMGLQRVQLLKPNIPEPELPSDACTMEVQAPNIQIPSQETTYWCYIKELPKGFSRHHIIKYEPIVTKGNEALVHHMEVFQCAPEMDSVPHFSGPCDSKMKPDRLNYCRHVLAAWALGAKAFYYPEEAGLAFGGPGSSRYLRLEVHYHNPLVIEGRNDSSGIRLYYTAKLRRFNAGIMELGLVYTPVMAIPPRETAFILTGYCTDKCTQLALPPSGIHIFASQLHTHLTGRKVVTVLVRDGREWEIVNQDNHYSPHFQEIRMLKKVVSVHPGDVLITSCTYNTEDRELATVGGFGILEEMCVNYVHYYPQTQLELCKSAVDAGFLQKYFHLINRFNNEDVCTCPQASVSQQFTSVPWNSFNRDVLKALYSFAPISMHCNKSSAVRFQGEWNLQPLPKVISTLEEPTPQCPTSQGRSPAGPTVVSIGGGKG
Assay: Dopamine beta hydroxylase activity in human plasma
Assay type: biochemical
Conditions: for Plasma (0.01 μM), activity in % of control: inhibitor 0.01 μM; for Plasma (0.1 μM), activity in % of control: inhibitor 0.1 μM
How it was run: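 Healthy-donor human plasma pre-incubated 10 min at 37° C with compound at final 10, 100 or 1000 nM in pH 5.0 acetate buffer with ascorbate, fumarate, pargyline, N-ethylmaleimide, catalase and copper sulfate. Tyramine substrate then added for 45 min; octopamine formed was isolated by SCX cartridge, periodate-converted and read at 330 nm; activity given as % control.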

Row | Structure (SMILES) | Plasma (0.01 μM), activity in % of control | Plasma (0.1 μM), activity in % of control | Plasma (1 μM), activity in % of control (inhibitor 1 μM)
1 | Cn1c(CC(=O)NC[C@@H]2CCCO2)c2n(c1=S)C[C@H](c1c(F)ccc(Cl)c1F)C2 [Example 336, 2-((S)-6-(3-chloro-2,6-difluorophenyl)-2-methyl-3-thioxo-2,5,6,7-tetrahydro-3H-pyrrolo[1,2-c]imidazol-1-yl)-N—(((S)-tetrahydrofuran-2-yl)methyl)acetamide] | 50.0 % of control | 9.4 % of control | 
2 | O=C(Cc1[nH]c(=S)n2c1[C@@H]1C[C@]1(c1cc(Br)ccc1F)C2)NC1CCC1 [Example 153, 2-((5aS,6aR)-5a-(5-bromo-2-fluorophenyl)-3-thioxo-2,3,5,5a,6,6a-hexahydrocyclopropa[3,4]pyrrolo[1,2-c]imidazol-1-yl)-N-cyclobutylacetamide] | 85.5 % of control | 28.4 % of control | 
3 | Cn1c(CC(=O)N2CCOCC2)c2n(c1=S)C[C@@]1(c3cc(Cl)ccc3F)C[C@@H]21 [Example 422, 2-((5aS,6aR)-5a-(5-chloro-2-fluorophenyl)-2-methyl-3-thioxo-2,3,5,5a,6,6a-hexahydrocyclopropa[3,4]pyrrolo[1,2-c]imidazol-1-yl)-1-morpholinoethan-1-one] | 68.1 % of control | 23.2 % of control | 
4 | CN(C(=O)Cc1c2n(c(=S)n1C)C[C@@]1(c3c(F)ccc(Cl)c3F)C[C@@H]21)C1CCOCC1 [Example 443, 2-((5aS,6aR)-5a-(3-chloro-2,6-difluorophenyl)-2-methyl-3-thioxo-2,3,5,5a,6,6a-hexahydrocyclopropa[3,4]pyrrolo[1,2-c]imidazol-1-yl)-N-methyl-N-(tetrahydro-2H-pyran-4-yl)acetamide] | 59.2 % of control | 11.5 % of control | 
5 | Cn1c(CC(=O)N[C@H]2CCOC2)c2n(c1=S)C[C@H](c1c(F)ccc(Br)c1F)C2 [Example 459, 2-((S)-6-(3-bromo-2,6-difluorophenyl)-2-methyl-3-thioxo-2,5,6,7-tetrahydro-3H-pyrrolo[1,2-c]imidazol-1-yl)-N—((S)-tetrahydrofuran-3-yl)acetamide] | 65.6 % of control | 13.5 % of control | 
6 | O=C(Cc1[nH]c(=S)n2c1C[C@H](c1c(F)ccc(Br)c1F)C2)NC1CCS(=O)(=O)CC1 [Example 130, (R)-2-(6-(3-bromo-2,6-difluorophenyl)-3-thioxo-2,5,6,7-tetrahydro-3H-pyrrolo[1,2-c]imidazol-1-yl)-N-(1,1-dioxidotetrahydro-2H-thiopyran-4-yl)acetamide] | 55.7 % of control | 8.4 % of control | 
7 | O=C(Cc1[nH]c(=S)n2c1C[C@H](c1c(F)ccc(Br)c1F)C2)N[C@@H]1CCOC1 [Example 116, 2-((R)-6-(3-bromo-2,6-difluorophenyl)-3-thioxo-2,5,6,7-tetrahydro-3H-pyrrolo[1,2-c]imidazol-1-yl)-N—((R)-tetrahydrofuran-3-yl)acetamide] | 93.8 % of control | 68.8 % of control | 
8 | Cn1c(CC(=O)N[C@@H]2CCOC2)c2n(c1=S)C[C@H](c1c(F)ccc(F)c1F)C2 [Example 412, 2-((S)-2-methyl-3-thioxo-6-(2,3,6-trifluorophenyl)-2,5,6,7-tetrahydro-3H-pyrrolo[1,2-c]imidazol-1-yl)-N—((R)-tetrahydrofuran-3-yl)acetamide] | 106.2 % of control | 63.2 % of control | 
9 | Cn1c(CC(=O)N2CCOCC2)c2n(c1=S)C[C@@H](c1c(F)c(F)cc(F)c1F)C2 [Example 242, (R)-2-(2-methyl-6-(2,3,5,6-tetrafluorophenyl)-3-thioxo-2,5,6,7-tetrahydro-3H-pyrrolo[1,2-c]imidazol-1-yl)-1-morpholinoethan-1-one] | 91.5 % of control | 53.6 % of control | 
10 | O=C(Cc1[nH]c(=S)n2c1[C@@H]1C[C@]1(c1cc(Cl)ccc1F)C2)NCc1ccccc1 [Example 156, N-benzyl-2-((5aS,6aR)-5a-(5-chloro-2-fluorophenyl)-3-thioxo-2,3,5,5a,6,6a-hexahydrocyclopropa[3,4]pyrrolo[1,2-c]imidazol-1-yl)acetamide] | 88.6 % of control | 40.3 % of control | 
11 | O=C(Cc1[nH]c(=S)n2c1C[C@H](c1c(F)c(F)cc(F)c1F)C2)NC[C@@H]1CCCO1 [Example 395, 2-((R)-6-(2,3,5,6-tetrafluorophenyl)-3-thioxo-2,5,6,7-tetrahydro-3H-pyrrolo[1,2-c]imidazol-1-yl)-N—(((S)-tetrahydrofuran-2-yl)methyl)acetamide] | 96.9 % of control | 47.8 % of control | 
12 | Cn1c(CC(=O)N[C@@H]2CCOC2)c2n(c1=S)C[C@@H](c1c(F)ccc(F)c1F)C2 [Example 244, 2-((R)-2-methyl-3-thioxo-6-(2,3,6-trifluorophenyl)-2,5,6,7-tetrahydro-3H-pyrrolo[1,2-c]imidazol-1-yl)-N—((R)-tetrahydrofuran-3-yl)acetamide] | 83.6 % of control | 32.9 % of control | 
13 | O=C(Cc1[nH]c(=S)n2c1[C@@H]1C[C@]1(c1cc(Br)ccc1F)C2)NC1CC1 [Example 154, 2-((5aS,6aR)-5a-(5-bromo-2-fluorophenyl)-3-thioxo-2,3,5,5a,6,6a-hexahydrocyclopropa[3,4]pyrrolo[1,2-c]imidazol-1-yl)-N-cyclopropylacetamide] | 89.5 % of control | 38.6 % of control | 
14 | Cn1c(CC(=O)N2CCOCC2)c2n(c1=S)C[C@@H](c1c(F)ccc(F)c1F)C2 [Example 237, (R)-2-(2-methyl-3-thioxo-6-(2,3,6-trifluorophenyl)-2,5,6,7-tetrahydro-3H-pyrrolo[1,2-c]imidazol-1-yl)-1-morpholinoethan-1-one] | 92.9 % of control | 61.6 % of control | 
15 | O=C(Cc1[nH]c(=S)n2c1[C@@H]1C[C@]1(c1c(F)ccc(Cl)c1F)C2)NCCn1cccn1 [Example 142, N-(2-(1H-pyrazol-1-yl)ethyl)-2-((5aS,6aR)-5a-(3-chloro-2,6-difluorophenyl)-3-thioxo-2,3,5,5a,6,6a-hexahydrocyclopropa[3,4]pyrrolo[1,2-c]imidazol-1-yl)acetamide] | 60.0 % of control | 16.2 % of control | 
16 | O=C(Cc1[nH]c(=S)n2c1C[C@@H](c1cc(Br)ccc1F)C2)NC1CCCC1 [Example 74, (S)-2-(6-(5-bromo-2-fluorophenyl)-3-thioxo-2,5,6,7-tetrahydro-3H-pyrrolo[1,2-c]imidazol-1-yl)-N-cyclopentylacetamide] |  | 70.3 % of control | 8.1 % of control
17 | CN(C(=O)Cc1c2n(c(=S)n1C)C[C@H](c1c(F)ccc(F)c1F)C2)C1COC1 [Example 435, (S)—N-methyl-2-(2-methyl-3-thioxo-6-(2,3,6-trifluorophenyl)-2,5,6,7-tetrahydro-3H-pyrrolo[1,2-c]imidazol-1-yl)-N-(oxetan-3-yl)acetamide] | 66.5 % of control | 36.6 % of control | 
